From the supplement of paper PMC10307832

Assays:
Assay in all cases: relative viability (nuclei count vs DMSO), 5 days (fraction); higher = more cells survive
[1] = compound: Cc1ccc(NC(=O)c2ccc(CN3CCN(C)CC3)cc2)cc1Nc1nc(-c2cccnc2)cs1 [Masitinib] + Cc1cc(Nc2cc(N3CCN(C)CC3)nc(Sc3ccc(NC(=O)C4CC4)cc3)n2)n[nH]1 [Tozasertib] (partner 0.1 µM)
Outline: (§1)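 For relative viability, nuclei counts in treated wells were divided by those in vehicle wells. Lung cancer cell lines had been pin-tool dosed in 1536-well plates the day after seeding and cultured for 5 days, then fixed and stained in one step (final 0.05% Triton X-100, 1% formaldehyde, 1 ug/ml Hoechst) and imaged at 4×. Doses were one drug alone or a fixed anchor-drug dose plus five library-drug doses (not always all listed) in √10 steps, and values are duplicate-plate medians.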

[2] = compound: CC1=CC(=CC=C1)NC2=NC(=CS2)C3=CC=NC=C3 + O=C(c1cc(Cc2n[nH]c(=O)c3ccccc23)ccc1F)N1CCN(C(=O)C2CC2)CC1 [Olaparib] (partner 8 µM)
Outline: as §1

[3] = compound: Cc1ccc(NC(=O)c2ccc(CN3CCN(C)CC3)cc2)cc1Nc1nc(-c2cccnc2)cs1 [Masitinib] + Nc1ncn([C@H]2C[C@H](O)[C@@H](CO)O2)c(=O)n1 [Decitabine] (partner 2 µM)
Outline: as §1

[4] = compound: CC1=CC(=CC=C1)NC2=NC(=CS2)C3=CC=NC=C3 + CS(=O)(=O)CCNCc1ccc(-c2ccc3ncnc(Nc4ccc(OCc5cccc(F)c5)c(Cl)c4)c3c2)o1 [Lapatinib] (partner 2 µM)
Outline: as §1

Cell Line	relative viability ([1]; first compound 0.01 µM)	relative viability ([1]; first compound 0.03162 µM)	relative viability ([1]; first compound 0.1 µM)	relative viability ([1]; first compound 0.3162 µM)	relative viability ([1]; first compound 1 µM)	relative viability ([2]; first compound 0.08 µM)	relative viability ([2]; first compound 0.253 µM)	relative viability ([2]; first compound 0.8 µM)	relative viability ([2]; first compound 2.53 µM)	relative viability ([2]; first compound 8 µM)	relative viability ([3]; first compound 0.01 µM)	relative viability ([3]; first compound 0.03162 µM)	relative viability ([3]; first compound 0.1 µM)	relative viability ([3]; first compound 0.3162 µM)	relative viability ([3]; first compound 1 µM)	relative viability ([4]; first compound 0.08 µM)	relative viability ([4]; first compound 0.253 µM)	relative viability ([4]; first compound 0.8 µM)	relative viability ([4]; first compound 2.53 µM)	relative viability ([4]; first compound 8 µM)
NCI-H1651	0.743	0.68	0.685	0.484	0.583	0.185	0.179	0.166	0.177	0.186	0.551	0.674	0.595	0.598	0.584	0.721	0.704	0.865	0.713	0.781
NCI-H1666	–	0.495	0.586	0.58	0.585	0.677	0.771	0.737	0.766	0.824	0.698	0.665	0.703	0.626	0.647	0.245	0.24	0.256	0.283	0.241
NCI-H1734	0.285	0.27	0.318	0.276	0.272	0.552	0.584	0.57	0.63	0.539	0.539	0.485	0.546	0.522	0.483	0.896	1.02	1.04	0.932	0.928
NCI-H1755	–	0.573	0.57	0.57	0.454	0.796	0.829	0.769	0.598	0.533	0.612	0.711	0.733	0.709	0.647	1.01	1.04	0.843	0.902	0.707
NCI-H1793	0.337	0.309	0.33	0.238	0.256	0.889	0.647	0.799	0.68	0.81	0.486	0.509	0.502	0.53	0.591	–	0.557	0.642	0.565	0.657
NCI-H1915	–	0.453	–	0.44	0.387	0.271	0.263	0.25	0.243	0.23	–	0.239	–	0.241	0.246	0.91	0.892	1.01	0.876	0.823
NCI-H1944	–	0.214	–	0.205	0.247	0.377	0.379	0.377	0.327	0.377	–	0.398	–	0.423	0.384	0.707	0.783	0.812	0.626	0.613
NCI-H1975	0.764	0.609	0.609	–	0.263	0.747	0.442	0.458	0.395	0.235	0.324	0.417	0.381	0.293	0.34	0.723	0.821	0.657	0.651	0.544
NCI-H1993	0.519	0.554	0.547	0.593	0.498	0.945	1.01	0.923	1.11	0.898	0.49	0.545	0.534	0.459	0.496	0.685	0.802	0.7	0.869	0.778
NCI-H2009	0.762	0.71	0.744	0.817	0.658	0.629	0.644	0.717	0.677	0.63	0.368	0.332	0.409	0.406	0.371	0.768	0.857	0.978	0.89	0.588
NCI-H2023	0.327	0.356	0.279	0.184	0.189	0.42	0.543	0.38	0.388	0.286	0.205	0.271	0.327	0.195	0.187	0.661	0.698	0.771	0.749	0.473
NCI-H2085	0.691	0.779	0.865	0.479	0.663	0.844	0.784	0.757	0.769	0.587	0.55	0.522	0.511	0.536	0.509	0.658	0.639	0.707	0.67	0.674
NCI-H2087	0.317	0.22	0.239	0.211	0.236	0.596	0.503	0.607	0.448	0.462	0.25	0.247	0.32	0.223	0.254	0.823	0.788	0.846	1.11	0.829
NCI-H2126	0.938	0.819	0.926	0.627	0.828	0.894	0.898	0.869	0.88	0.887	0.58	0.499	0.586	0.505	0.567	0.593	0.667	0.68	0.594	0.572
NCI-H2170	0.778	0.685	0.746	0.739	0.671	0.589	0.631	0.473	0.531	0.425	0.467	0.473	0.509	0.488	0.449	0.259	0.255	0.255	0.275	0.264
NCI-H2347	0.379	0.457	0.536	0.563	0.394	0.47	0.536	0.538	0.568	0.48	0.598	0.529	0.614	0.669	0.652	0.731	0.767	0.635	0.95	0.757
NCI-H2405	0.759	0.729	0.725	0.631	0.635	0.751	0.75	0.677	–	0.723	0.688	0.692	0.762	0.764	0.692	0.853	1	0.919	0.936	0.813
